Reference: patent US4515811A, “Process for the resolution of d,1 2-(6-methoxy-2-naphthyl)propionic acid” (Syntex Corporation, priority 1980, dated 1985)
Where a name gives a salt, the structure may show the parent alone.

system: carrageenin-induced paw inflammation in the rat; test: not given; details: Example 32; female rats, oral gavage at hour 0, carrageenin at hour 1, sacrificed hour 4; relative to phenylbutazone = 1, molar basis
Procedure: The anti-inflammatory activity of each of the compounds listed below is compared with the activity of phenylbutazone by means of the carrageenin-induced rat paw inflammation test described below.
TEST FOR ANTI-INFLAMMATORY ACTIVITY UTILIZING CARRAGEENIN-INDUCED PAW INFLAMMATION IN THE RAT
Materials and Methods--Female rats weighing 80-90 grams are used. The test materials are given at hour 0 orally by gavage in 1 ml. aqueous vehicle. At hour 1, 0.05 ml. of a 1% solution (in 0.9% NaCl) of carrageenin is injected into the right hind paw. This injection causes an inflammation of the paw. The rats are sacrificed at hour 4, at which time both hind paws are removed and weighed separately.
End point: % increase in paw size calculated as follows: [formula]

Compound | Oral Anti-Inflammatory Activity (on a molar equivalent basis) (Phenylbutazone = 1)
COc1ccc2cc([C@H](C)C(=O)O)ccc2c1 [N-ethyl-D-glucamine salt of d 2-(6-methoxy-2-naphthyl)propio] [N-ethyl-D-glucamine salt of d 2-(6-methoxy-2-naphthyl)propionic acid] | 17
COc1ccc2cc([C@H](C)C(=O)O)ccc2c1 [N-n-octadecyl-D-glucamine salt of d 2-(6-methoxy-2-naphthyl)] [N-n-octadecyl-D-glucamine salt of d 2-(6-methoxy-2-naphthyl)propionic acid] | 7
COc1ccc2cc([C@H](C)C(=O)O)ccc2c1 [N-cyclohexyl-D-glucamine salt of d 2-(6-methoxy-2-naphthyl)p] [N-cyclohexyl-D-glucamine salt of d 2-(6-methoxy-2-naphthyl)propionic acid] | 11
COc1ccc2cc([C@H](C)C(=O)O)ccc2c1 [N-n-propyl-D-glucamine salt of d 2-(6-methoxy-2-naphthyl)pro] [N-n-propyl-D-glucamine salt of d 2-(6-methoxy-2-naphthyl)propionic acid] | 20
COc1ccc2cc([C@H](C)C(=O)O)ccc2c1 [N-n-butyl-D-glucamine salt of d 2-(6-methoxy-2-naphthyl)prop] [N-n-butyl-D-glucamine salt of d 2-(6-methoxy-2-naphthyl)propionic acid] | 5
COc1ccc2cc([C@H](C)C(=O)O)ccc2c1 [N-n-octyl-D-glucamine salt of d 2-(6-methoxy-2-naphthyl)prop] [N-n-octyl-D-glucamine salt of d 2-(6-methoxy-2-naphthyl)propionic acid] | 17

same assay, conditions: Example 33; test of Example 32 repeated; oral, female rats; relative to phenylbutazone = 1, molar basis

Compound | Oral Anti-Inflammatory Activity (on a molar equivalent basis) (Phenylbutazone = 1)
COc1ccc2cc([C@H](C)C(=O)O)ccc2c1 [N-cyclopropyl-D-glucamine salt of d 2-(6-methoxy-2-naphthyl)] [N-cyclopropyl-D-glucamine salt of d 2-(6-methoxy-2-naphthyl)propionic acid] | 9
COc1ccc2cc([C@H](C)C(=O)O)ccc2c1 [N-cyclooctyl-D-glucamine salt of d 2-(6-methoxy-2-naphthyl)p] [N-cyclooctyl-D-glucamine salt of d 2-(6-methoxy-2-naphthyl)propionic acid] | 20

system: not listed separately; test: Solubility of resolving agent in water; assay type: physicochemical; details: not given

solubility in water (in words) | Compound
substantially insoluble in water | CCCCCCCCNC[C@H](O)[C@@H](O)[C@H](O)[C@H](O)CO [N-n-octyl-D-glucamine]
